Common to all, as to assay: stopped-flow CO2 hydrase assay
What all share (format): biochemical

Assay [1] deals with T1, hCA XII (Homo sapiens, UniProt O43570).
T1 construct: gene CA12; recombinant, made in-house
The source says:
stopped-flow CO2 hydrase assay on hCA XII

The target in assay [2] is T2, hCA IX (Homo sapiens, UniProt Q16790).
T2 construct: gene CA9; recombinant, made in-house
The source says: stopped-flow CO2 hydrase assay on hCA IX

The target of assay [3] is T3, hCA I (Homo sapiens, UniProt P00915).
T3 construct: gene CA1; purchased from Merck; cytosolic isoform; construct not described
The source says:
stopped-flow CO2 hydrase assay on hCA I

Assay [4] deals with T4, hCA II (Homo sapiens, UniProt P00918).
T4 construct: gene CA2; purchased from Merck; cytosolic isoform; construct not described
The source says:
stopped-flow CO2 hydrase assay on hCA II

Setting [5] is: CO2 substrate; […] HEPES pH […] Na2SO4, […] min preincubation at room temperature.

pKi: −log10 of the molar value. Read-outs that look alike come from different tables or passages of the source.

T3 sequence (P00915 2-261): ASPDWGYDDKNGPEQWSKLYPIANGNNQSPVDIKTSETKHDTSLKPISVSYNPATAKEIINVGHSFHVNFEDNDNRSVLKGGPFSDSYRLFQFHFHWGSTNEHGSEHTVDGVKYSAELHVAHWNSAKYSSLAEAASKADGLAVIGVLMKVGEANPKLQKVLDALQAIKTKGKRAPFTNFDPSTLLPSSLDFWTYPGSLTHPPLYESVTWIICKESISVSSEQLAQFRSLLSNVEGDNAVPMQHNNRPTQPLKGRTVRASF
T1 sequence (O43570 25-354 limits assumed): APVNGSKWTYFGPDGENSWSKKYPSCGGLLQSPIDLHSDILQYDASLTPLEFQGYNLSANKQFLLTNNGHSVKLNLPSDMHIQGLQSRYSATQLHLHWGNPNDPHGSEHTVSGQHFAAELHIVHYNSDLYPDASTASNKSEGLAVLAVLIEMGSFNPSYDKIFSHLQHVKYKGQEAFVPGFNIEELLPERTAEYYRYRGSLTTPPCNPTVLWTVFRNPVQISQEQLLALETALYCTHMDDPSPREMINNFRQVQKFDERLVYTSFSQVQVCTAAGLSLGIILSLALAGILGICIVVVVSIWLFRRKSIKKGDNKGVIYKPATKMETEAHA

The pKi is the Ki on a negative log10 scale, so that one unit is a factor of ten. As to `NS(=O)(=O)c1cc(C(=O)N2CCN(S(=O)(=O)c3ccc(Cl)cc3)CC2)c(Cl)cc1Cl` [compound 7, 2,4‐dichloro‐5‐({4‐[(4‐chlorophenyl)sulfonyl]piperazin‐1‐yl}carbonyl)benzenesulfonamide], the pKi is 8.28 in assay [1], 7.45 in assay [2], 8.09 in assay [3] and 8.47 in assay [4].
The matching figures for `Nc1cccc(S(=O)(=O)N2CCN(C(=O)c3cc(S(N)(=O)=O)c(Cl)cc3Cl)CC2)c1` [compound 12, 5‐({4‐[(3‐aminophenyl)sulfonyl]piperazin‐1‐yl}carbonyl)‐2,4‐dichlorobenzenesulfonamide]: 8.27, 7.58, 8.24 and 9.10.
As to `Nc1ccccc1S(=O)(=O)N1CCN(C(=O)c2cc(S(N)(=O)=O)c(Cl)cc2Cl)CC1` [compound 14, 5‐({4‐[(2‐aminophenyl)sulfonyl]piperazin‐1‐yl}carbonyl)‐2,4‐dichlorobenzenesulfonamide], the negative logarithm of the Ki (pKi) in assay [1] is 8.02; in assay [2], 7.94; in assay [3], 8.27; in assay [4], 8.55.
As for `NS(=O)(=O)c1cc(C(=O)N2CCN(S(=O)(=O)c3cccc([N+](=O)[O-])c3)CC2)c(Cl)cc1Cl` [compound 11, 2,4‐dichloro‐5‐({4‐[(3‐nitrophenyl)sulfonyl]piperazin‐1‐yl}carbonyl)benzenesulfonamide], the pKi in assay [1] was 8.11; in assay [2], 7.42; in assay [3], 8.21; in assay [4], 8.18.
For `NS(=O)(=O)c1cc(C(=O)N2CCN(S(=O)(=O)c3ccccc3)CC2)c(Cl)cc1Cl` [compound 4, 2,4‐dichloro‐5‐{[4‐(phenylsulfonyl)piperazin‐1‐yl]carbonyl}benzenesulfonamide], in that order: 8.15, 7.40, 8.03 and 8.13.
For `NS(=O)(=O)c1cc(C(=O)N2CCN(S(=O)(=O)c3ccc([N+](=O)[O-])cc3)CC2)c(Cl)cc1Cl` [compound 8, 2,4‐dichloro‐5‐({4‐[(4‐nitrophenyl)sulfonyl]piperazin‐1‐yl}carbonyl)benzenesulfonamide], in that order: 8.10, 7.40, 7.10 and 7.15.
Turning to `COc1ccc(S(=O)(=O)N2CCN(C(=O)c3cc(S(N)(=O)=O)c(Cl)cc3Cl)CC2)cc1` [compound 6, 2,4‐dichloro‐5‐({4‐[(4‐methoxyphenyl)sulfonyl]piperazin‐1‐yl}carbonyl)benzenesulfonamide], the pKi in assay [1] is 7.94; in assay [2], 7.39; in assay [3] it was 8.04; in assay [4], 8.55.
Regarding `NS(=O)(=O)c1cc(C(=O)N2CCN(S(=O)(=O)Cc3ccccc3)CC2)c(Cl)cc1Cl` [compound 16, 5‐{[4‐(benzylsulfonyl)piperazin‐1‐yl]carbonyl}‐2,4‐dichlorobenzenesulfonamide], the pKi in assay [1] was 9.06; in assay [2] it was 6.56; in assay [3], 9.27; in assay [4], 10.15.
In the case of `Cc1ccc(S(=O)(=O)N2CCN(C(=O)c3cc(S(N)(=O)=O)c(Cl)cc3Cl)CC2)cc1` [compound 5, 2,4‐dichloro‐5‐({4‐[(4‐methylphenyl)sulfonyl]piperazin‐1‐yl}carbonyl)benzenesulfonamide], the pKi was 7.20 in assay [1], 6.47 in assay [2], 7.19 in assay [3] and 7.54 in assay [4].
For `NS(=O)(=O)c1cc(C(=O)N2CCN(S(=O)(=O)c3ccccc3[N+](=O)[O-])CC2)c(Cl)cc1Cl` [compound 13, 2,4‐dichloro‐5‐({4‐[(2‐nitrophenyl)sulfonyl]piperazin‐1‐yl}carbonyl)benzenesulfonamide], in that order: 8.14, 7.54, 8.11 and 9.52.
With `NS(=O)(=O)c1cc(C(=O)O)c(Cl)cc1Cl` [compound 1, 2,4‐dichloro‐5‐sulfamoylbenzoic acid], the negative logarithm of the Ki (pKi) was 8.12 in assay [1] (setting [5]), 8.59 in assay [2] (setting [5]), 9.28 in assay [3] (setting [5]) and 9.48 in assay [4] (setting [5]).
Regarding `Nc1ccc(S(=O)(=O)N2CCN(C(=O)c3cc(S(N)(=O)=O)c(Cl)cc3Cl)CC2)cc1` [compound 9, 5‐({4‐[(4‐aminophenyl)sulfonyl]piperazin‐1‐yl}carbonyl)‐2,4‐dichlorobenzenesulfonamide], the pKi was 8.16 in assay [1], 6.82 in assay [2], 8.24 in assay [3] and 8.59 in assay [4].
The matching figures for `NS(=O)(=O)c1cc(C(=O)N2CCN(S(=O)(=O)c3ccc(Cl)c(Cl)c3)CC2)c(Cl)cc1Cl` [compound 15, 2,4‐dichloro‐5‐({4‐[(3,4‐dichlorophenyl)sulfonyl]piperazin‐1‐yl}carbonyl)benzenesulfonamide]: 8.04, 7.41, 8.15 and 8.24.
As for `CC(C)(C)OC(=O)N1CCN(C(=O)c2cc(S(N)(=O)=O)c(Cl)cc2Cl)CC1` [compound 2, Tert‐butyl 4‐[(2,4‐dichloro‐5‐sulfamoylphenyl)carbonyl]piperazine‐1‐carboxylate], the pKi is 7.30 in assay [1], 7.40 in assay [2], 7.07 in assay [3] and 8.41 in assay [4].
In the case of `CC(=O)Nc1ccc(S(=O)(=O)N2CCN(C(=O)c3cc(S(N)(=O)=O)c(Cl)cc3Cl)CC2)cc1` [compound 10, 5‐({4‐[(4‐acetylaminophenyl)sulfonyl]piperazin‐1‐yl}carbonyl)‐2,4‐dichlorobenzenesulfonamide], the pKi in assay [1] was 8.14; in assay [2] it was 7.39; in assay [3] it was 8.10; in assay [4], 8.27.

The values are drawn from PMC11648825, “Lasamide Containing Sulfonylpiperazines as Effective Agents for the Management of Glaucoma Associated Symptoms” (Chemmedchem, 2024).
